The values that follow come from ChEMBL document CHEMBL1139820, “Synthesis of new 7-chloroquinolinyl thioureas and their biological investigation as potential antimalarial and anticancer agents” (Bioorg Med Chem Lett, 2007).

One test relates to Plasmodium falciparum. As to the kind of experiment: Antiplasmodial activity against chloroquine-sensitive Plasmodium falciparum D10 in LDH reporter assay after 48 hrs. In kind it is functional, organism-based. As to conditions: D10, 48 h. On the technique in general: A reporter such as luciferase makes a cellular process visible.
Test [1] can be described thus: Selectivity index, Ratio of IC50 for human HeLa cells to IC50 for Plasmodium falciparum D10. In kind it is functional.
Another test relates to HeLa. As to the kind of experiment: Cytotoxicity against human HeLa cells assessed as cell survival after 7 hrs by MTT assay. It counts as functional, cell-based.

What is called IC50 is the concentration that gives 50% inhibition.

On to `CCN(CC)CCCNC(=S)Nc1ccnc2cc(Cl)ccc12`, for which the half-inhibitory concentration (IC50) in the test with Plasmodium falciparum is 2.2 µM; with HeLa it was 49.2 µM. Besides, the “Ratio IC50” value in test [1] was 22.355.

As to `CCN1CCN(C(=S)Nc2ccnc3cc(Cl)ccc23)CC1`, the IC50 with Plasmodium falciparum is 1.8 µM; with HeLa it was above 50 µM. Also, the “Ratio IC50” value in test [1] was above 27.77.

In turn, `S=C(Nc1ccnc2cc(Cl)ccc12)N1CCNCC1` registered an IC50 in the test on Plasmodium falciparum above 3.26 µM.

Consider `CN(C)CCCNC(=S)Nc1ccnc2cc(Cl)ccc12`, for which the IC50 in the test with Plasmodium falciparum was found to be 1.2 µM; in the test on HeLa, 48.5 µM. In test [1], the “Ratio IC50” value is reported as 40.375.

For `S=C(Nc1ccnc2cc(Cl)ccc12)N1CCN(c2ccccc2)CC1`, the IC50 is above 2.61 µM with Plasmodium falciparum and 43.6 µM in the test with HeLa.

Take `S=C(Nc1ccnc2cc(Cl)ccc12)N1CCN(CC2CCCCC2)CC1`: the IC50 in the test on Plasmodium falciparum was above 2.4 µM; in the test on HeLa, above 50 µM. Moreover, in test [1], the “Ratio IC50” value is listed as above 20.83.

Regarding `S=C(Nc1ccnc2cc(Cl)ccc12)N1CCN(Cc2ccccc2)CC1`, the IC50 in the test on Plasmodium falciparum is above 2.5 µM; with HeLa, 28.9 µM.

In the case of `OCCNC(=S)Nc1ccnc2cc(Cl)ccc12`, the figures for the IC50 in the test with Plasmodium falciparum and in the test on HeLa were above 3.5 µM and above 50 µM, respectively. Also, in test [1], the “Ratio IC50” value is on record as above 14.28.

As to `CCOC(=O)N1CCN(C(=S)Nc2ccnc3cc(Cl)ccc23)CC1`, the figures for the IC50 in the test with Plasmodium falciparum and in the test with HeLa were above 2.6 µM and 40.1 µM, respectively.

Turning to `NCCNC(=S)Nc1ccnc2cc(Cl)ccc12`, the IC50 was found to be 3.3 µM with Plasmodium falciparum and 18 µM in the test with HeLa. Also, the “Ratio IC50” value in test [1] came out at 5.4581.

Compound `CCSc1nnc(NC(=S)Nc2ccnc3cc(Cl)ccc23)s1` gave an IC50 in the test on Plasmodium falciparum above 2.62 µM.

For the compound `CCN(CC)CCCC(C)Nc1ccnc2cc(Cl)ccc12` (configuration not stated) [CHLOROQUINE], the IC50 with HeLa was 9.67 µM.
